Data on 2 molecules can be found in the NIST ThermoML archive (doi:10.1016/j.jct.2018.04.010).

Molecules are shown by their SMILES. Numbers after ± are expanded uncertainties.

A short description of data set [1]: xn = mol fraction of the nth substance listed. The settings on record: 101 kPa, Liquid, Vibrating tube method, x2 = 0.333.
The conditions of data set [2]: 101 kPa, Liquid, Vibrating tube method.

What is called mass density is mass per unit of volume.

Take `NC(N)=O` [urea] + C[N+](C)(C)CCO.[Cl-]: the mass density came to 1199.7 ± 2 kg/m3 in data set [1] (293.15 K), 1194.2 ± 2 kg/m3 in data set [1] (303.15 K), 1188.6 ± 2 kg/m3 in data set [1] (313.15 K) and 1183.2 ± 2 kg/m3 in data set [1] (323.15 K).
`CO` [methanol]: the mass density in data set [2] (293.15 K) amounted to 792.6 ± 2 kg/m3; in data set [2] (303.15 K), 783 ± 2 kg/m3; in data set [2] (313.15 K), 773.5 ± 2 kg/m3; in data set [2] (323.15 K), 764 ± 2 kg/m3.
